Assay results published in publication PMC4618141, “Use of In Vitro and Predictive In Silico Models to Study the Inhibition of Cytochrome P4503A by Stilbenes” (PLoS ONE, 2015).

Molecular target: CYP3A4 (Homo sapiens, UniProt P08684)
Assay: inhibition of testosterone metabolism in Caco-2/TC7 cells (HPLC)

Chain of CYP3A4 (P08684 2-503): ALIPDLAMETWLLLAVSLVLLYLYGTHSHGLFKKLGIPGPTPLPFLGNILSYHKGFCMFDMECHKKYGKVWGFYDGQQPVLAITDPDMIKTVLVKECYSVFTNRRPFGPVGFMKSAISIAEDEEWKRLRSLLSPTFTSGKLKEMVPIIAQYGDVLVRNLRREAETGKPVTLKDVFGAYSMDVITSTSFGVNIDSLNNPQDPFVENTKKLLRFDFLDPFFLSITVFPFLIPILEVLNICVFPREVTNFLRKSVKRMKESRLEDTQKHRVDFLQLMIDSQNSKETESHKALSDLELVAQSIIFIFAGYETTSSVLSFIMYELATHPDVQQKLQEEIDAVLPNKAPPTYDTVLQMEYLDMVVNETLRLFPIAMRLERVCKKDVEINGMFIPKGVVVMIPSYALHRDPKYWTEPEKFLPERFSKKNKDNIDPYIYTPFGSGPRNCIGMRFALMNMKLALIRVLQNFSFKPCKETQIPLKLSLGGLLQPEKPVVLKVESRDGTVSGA

**Q.** For `Oc1ccc(/C=C/c2cc(O)cc(O)c2)cc1` [Resveratrol, trans-3,4′,5-trihydroxystilbene], which IC50 is on record?
**A.** < 10 µM
